Entries after “also recorded” stand apart in the source; their conditions may differ.
Assays:
[1] = system: progressive multiple sclerosis patients; test: Clinical evaluation (EDSS, maximum walking distance, walking speed) after repeated intrathecal TCA applications; type: in vivo, human; details: for clinical benefit / functional recovery: not immediately responding patients
Protocol: Subjects. 25 MS patients (age: 50±1.64 [mean±SEM, years] were studied. The average MS duration was 14.02±1.71 [years]. The subjects included 14 women and 11 men. The subjects included 13 secondary progressive [8 women, 5 men] and 12 primary progressive [6 women, 6 men]). […] Design. TCA application was followed by a mandatory stay in bed for at least six hours in order to support and ease the diffusion of TCA in the CSF and the spinal cord. Lumbar puncture was performed with an atraumatic Sprotte needle. The preexisting immune system modulating drug therapy remained stable. Spasticity reducing therapy was not changed. Expanded Disability Status Score (EDSS) ratings, maximum walking distance, and walking speed assessments were performed at baseline and on each day after a 40 mg Triamcinolone acetonide (TCA) administration, dissolved in 10 ml saline, up to the fourth TCA application. Statistics. ANCOVA with repeated measures design were employed for this exploratory analysis of this pilot trial. Covariates were MS duration, MS types, sex and age as covariates. The post hoc analysis was done with the Tukey's multiple comparisons test against baseline. The statistical analysis was performed with GraphPad Prism 5 Software. […] Clinical evaluation was performed at baseline and on each day after a triamcinolone administration in 25 progressive multiple sclerosis patients. Before the TCA was administered to a patient, 1-2 ml aliquots of CSF were withdrawn. RGMa concentrations were determined before each triamcinolone application by western blot analysis with quantification. Dependent on the disease activity, the patients usually received 4-6 TCA applications.

[2] = system: RGMa; test: RGMa levels in cerebrospinal fluid by Western blot with densitometric quantification; type: in vivo, human
[3] = system: progressive multiple sclerosis patients; test: Side effects during TCA therapy; type: in vivo, human; details: all participants (25 MS patients)
Protocol: Design. TCA application was followed by a mandatory stay in bed for at least six hours in order to support and ease the diffusion of TCA in the CSF and the spinal cord. Lumbar puncture was performed with an atraumatic Sprotte needle. The preexisting immune system modulating drug therapy remained stable. Spasticity reducing therapy was not changed. Expanded Disability Status Score (EDSS) ratings, maximum walking distance, and walking speed assessments were performed at baseline and on each day after a 40 mg Triamcinolone acetonide (TCA) administration, dissolved in 10 ml saline, up to the fourth TCA application. […] Clinical evaluation was performed at baseline and on each day after a triamcinolone administration in 25 progressive multiple sclerosis patients. Before the TCA was administered to a patient, 1-2 ml aliquots of CSF were withdrawn. RGMa concentrations were determined before each triamcinolone application by western blot analysis with quantification. Dependent on the disease activity, the patients usually received 4-6 TCA applications.

[4] = system: MS patients; details: cited from earlier work
[5] = treated MS patients, numerous TCA studies

Q: For `CC1(C)O[C@@H]2C[C@H]3[C@@H]4CCC5=CC(=O)C=C[C@]5(C)[C@@]4(F)[C@@H](O)C[C@]3(C)[C@]2(C(=O)CO)O1` [TCA, triamcinolone acetonide], which walking speed ([1]; 8 not immediately responding patients, F=0.021, ns, FIG. 4C) is on record?
A: Its walking speed is “no significant change; also recorded: no improved”.

Q: And the EDSS scores ([1]; 8 not immediately responding patients, F=1, ns, FIG. 4A)?
A: The EDSS scores was “no significant change; also recorded: no improved”.

Q: And the maximum walking distances ([1]; 8 not immediately responding patients, F=1.52, ns, FIG. 4B)?
A: The maximum walking distances was “no significant change; also recorded: no improved”.

Q: And the walking speed ([1]; 17 immediate responders (3 wheel chair bound excluded), F=3.42, p<0.01, FIG. 3C)?
A: The walking speed was “improved”.

Q: What about the walking speed ([1]; 17 immediate responders (3 wheel chair bound excluded), F=3.42, p<0.01, FIG. 3C, listed as Triamcinolone Acetonide) of the same compound?
A: Its walking speed is “went up”.

Q: What about the walking speed ([1]; 17 immediate responders (3 wheel chair bound excluded), F=3.42, p<0.01, FIG. 3C, listed as triamcinolone) of the same compound?
A: The walking speed was “ameliorated”.

Q: And the maximum walking distances ([1]; 17 immediate responders (3 wheel chair bound excluded), F=3.64, p=0.01, FIG. 3B)?
A: The maximum walking distances was “improved”.

Q: And the maximum walking distances ([1]; 17 immediate responders (3 wheel chair bound excluded), F=3.64, p=0.01, FIG. 3B, listed as Triamcinolone Acetonide)?
A: The maximum walking distances was “increased”.

Q: What about the maximum walking distances ([1]; 17 immediate responders (3 wheel chair bound excluded), F=3.64, p=0.01, FIG. 3B, listed as triamcinolone) of the same compound?
A: The maximum walking distances was “ameliorated”.

Q: What about the EDSS scores ([1]; 17 immediate responders, 40 mg TCA intrathecal, repeated, F=8.55, p<0.009, FIG. 3A) of the same compound?
A: The EDSS scores was “improved”.

Q: What about the EDSS scores ([1]; 17 immediate responders, 40 mg TCA intrathecal, repeated, F=8.55, p<0.009, FIG. 3A, listed as Triamcinolone Acetonide) of the same compound?
A: The EDSS scores was “went down”.

Q: What about the EDSS scores ([1]; 17 immediate responders, 40 mg TCA intrathecal, repeated, F=8.55, p<0.009, FIG. 3A, listed as triamcinolone) of the same compound?
A: The EDSS scores was “improved”.

Q: What about the “patients reporting a delayed improvement within three weeks after the TCA applications” value ([1]; among the 8 not immediately responding patients) of the same compound?
A: Its value is 6 patients.

Q: What about the “clinical benefit / functional recovery” value [1] of the same compound?
A: Its value is “no functional recovery”.

Q: And the “clinical benefit / functional recovery” value ([1]; listed as triamcinolone)?
A: Its value is “no prompt clinical benefit”.

Q: And the “patients improved following treatment” value ([1]; of 25 progressive MS patients)?
A: The value was 17 patients.

Q: And the “patients who did not immediately respond during the observation period” value ([1]; of 25 progressive MS patients)?
A: Its value is 8 patients.

Q: What about the “RGMa concentrations in CSF” value ([2]; not immediately responding patients) of the same compound?
A: The value was “no decrease”.

Q: What about the “RGMa 40 kDa form level in CSF” value ([2]; not immediately responding patients, F=0.84, ns, FIG. 7A) of the same compound?
A: Its value is “No significant changes”.

Q: What about the “RGMa 30 kDa form level in CSF” value ([2]; not immediately responding patients, F=2.98, ns, FIG. 7B) of the same compound?
A: The value was “No significant changes”.

Q: And the “RGMa levels in CSF (all investigated fragments)” value (shortened to “RGMa levels in CSF”) ([2]; responders)?
A: Its value is “decreased”.

Q: And the “RGMa 40 kDa form level in CSF” value ([2]; responders, F=9.12, p<0.0001, FIG. 5A)?
A: Its value is “decline”.

Q: And the “RGMa 30 kDa form level in CSF” value ([2]; responders, less pronounced than 40 kDa, F=3.82, p<0.05, FIG. 5B)?
A: Its value is “decline”.

Q: And the “RGMa levels in CSF” value ([2]; responders, listed as Triamcinolone Acetonide)?
A: Its value is “reduction”.

Q: And the “RGMa levels in CSF” value ([2]; responders, listed as triamcinolone)?
A: Its value is “declined”.

Q: And the serious side effects [3]?
A: Its serious side effects is “no serious side effects”.

Q: And the “CSF synthesis of free radicals” value ([4]; patients with a distinct immediate enhancement of upper and lower limb function)?
A: Its value is “Reduced”.

Q: What about the “EDSS (Expanded Disability Status Score)” value [4, 5] of the same compound?
A: Its value is “decreased”.

Q: What about the walking distance [4, 5] of the same compound?
A: The walking distance was “increased”.

Q: What about the walking speed [4, 5] of the same compound?
A: The walking speed was “decreased”.

Source: US20220018855A1, “RGMa Fragment Based Diagnostic Assay” (ABBVIE DEUTSCHLAND GMBH & CO. KG, priority 2014, published 2022)
